From PubChem BioAssay AID1626 (SRMLSC, 2009)
pIC50: −log10 of the molar value.

Tested on: M. tuberculosis H37Rv growth inhibition
Assay: M. tuberculosis H37Rv growth inhibitors, H37Rv strain (AID 1626)
Details: for IC90: measured here: IC90 against H37Rv; for CC50: measured here: Vero cell cytotoxicity

Row | SMILES | pIC50 | IC90 [µM] | CC50 [µM]
1 | Cc1ccc(-n2cc(CN(C)Cc3nccn3C)c(-c3cccc(C)c3)n2)cc1 | 5.01 | 15.9 | > 40
2 | Cn1c(=O)[nH]c(=O)c2c1nc(N1CCCCC1)n2CCCSc1nc2ccccc2s1 |  |  | > 40
3 | CCOc1ccc(NC2c3ccccc3C(=O)N2Cc2ccco2)cc1 (stereo not drawn) | 4.72 | > 100 | 
4 | CC(=O)c1cccc(NC(=O)/C=C/c2ccc([N+](=O)[O-])s2)c1 | 5.19 | 57.4 | > 40
5 | CCCOC(=O)c1ccc(NC(=O)CCOc2ccccc2)cc1 | 6.21 | > 100 | 
6 | CCOc1ccc2nc(NC(=O)C(CC)Sc3nc(C)cc(=O)[nH]3)sc2c1 (stereo not drawn) | 4.45 | > 100 | > 40
7 | CCOC(=O)c1ccc(NCc2nc3ccccc3[nH]2)cc1 | 4.36 | > 100 | 
8 | COc1cc(CNc2ccc(N3CCN(C(C)=O)CC3)cc2)ccc1OCc1ccc(F)cc1 |  |  | > 40
9 | CC(C)OC(=O)c1cc(C(=O)c2cc(Cl)ccc2O)coc1=N | 4.55 | > 100 | 
10 | O=c1oc(/C=C/c2ccccc2)nc2ccccc12 | 4.90 | > 100 | 
11 | O=C(Nc1nnc(SCc2ccc(F)cc2)s1)c1ccccn1 | 6.47 | 5.05 | 4.74
12 | CCCOC(=O)c1ccc(NC(=O)c2ccc(Br)o2)cc1 | 6.17 | 2.82 | 
13 | CCCOC(=O)c1ccc(NC(=O)COC)cc1 | 4.92 | > 100 | 
14 | Cc1cc(NCc2ccccn2)n2ncc(-c3ccccc3)c2n1 | 5.32 | 7.62 | 31.4
15 | Cc1ccc(NC(=O)/C=C/c2ccc([N+](=O)[O-])s2)cc1 | 4.34 | > 100 | > 40
16 | N=C(N)SCc1cn(-c2ccccc2)nc1-c1ccc(Br)cc1 | 5.17 | 9.39 | 14.6
17 | Cc1ccc(NC(=O)COC(=O)C2=COCCO2)c([N+](=O)[O-])c1 | 5.20 | > 100 | 
18 | O=C(Oc1ccc2ccc(O)cc2c1)C1CCCCC1 |  | > 100 | 
19 | CCCc1nc2sc3ccccc3c(=O)c2c(=O)n1Cc1ccc(OC)cc1 |  | > 100 | > 40
20 | O=C(Nc1ccc(C2=NCCN2)cc1)c1ccc(Cl)c(C(=O)Nc2ccc(C3=NCCN3)cc2)c1 | 5.11 | 16.9 | 
21 | CCOC(=O)COc1ccc2c(=O)c(-c3ccc(OC)c(OC)c3)c(C(=O)OCC)oc2c1 | 5.60 | 5.68 | 

Row | SMILES | pIC50 | IC90 [µM] | CC50 [µM]
22 | CN(CC(=O)Nc1ccc(Cl)c(Cl)c1)Cc1nnc(-c2ccc(F)cc2)o1 | 4.80 | 24.1 | 
23 | O=c1[nH]c(-c2ccccn2)nc2sc(-c3ccccc3)cc12 | > 6.41 | 0.553 | 2.2
24 | CC(C)[C@H](CO)N(Cc1cccc(F)c1)c1nc(Nc2cccc(Cl)c2)c2ncn(C(C)C)c2n1 | 5.14 | 14.1 | > 40
25 | Oc1ccc(COCc2ccccc2)c2cccnc12 | 5.52 | 3.31 | 1.6
26 | O=c1nc(/C=C/c2ccc(-c3ccc(F)cc3)o2)cc(C(F)(F)F)[nH]1 | 4.98 | > 100 | > 40
27 | CSc1cccc(NC(=O)CSc2nnc(C)s2)c1 | 4.01 | > 100 | 
28 | COc1cc2nc(C3CCC3)nc(N3CCN(c4ccccc4OC)CC3)c2cc1OC | 5.41 | 6.52 | > 40
29 | O=C(c1ccc2c3c(cccc13)CC2)C1CCCN(Cc2ccccn2)C1 (stereo not drawn) | 5.00 | > 100 | > 40
30 | COc1ccc2nc(NC(=O)c3cnccn3)sc2c1 |  |  | > 40
31 | C/C(=N\N=C(/N)SC1CC(=O)N(c2ccc(Br)cc2)C1=O)c1cccs1 (stereo not drawn) | 5.03 | 16.8 | > 40
32 | CCOc1[nH]n(-c2ccccc2)c(=O)c1C=Nc1ccc(OC)cc1 |  | > 100 | 
33 | Cc1cccc(C)c1OCC(=O)Nc1cccc(-c2nnc(-c3ccccc3)o2)c1 | 4.97 | > 100 | > 40
34 | COC(=O)COc1ccc2c(=O)c(Oc3ccccc3)c(C)oc2c1 | 5.67 | 10 | 
35 | O=c1cc(-c2c(F)c(F)c(F)c(F)c2F)oc2ccccc12 | 6.66 | 2.3 | > 40
36 | COc1cccc(-c2cc(C(=O)Nc3nc4ccccc4s3)c3ccccc3n2)c1 | 5.09 | > 100 | > 40
37 | Cc1ccc(-c2nnc(N3CCN(C(=O)c4ccco4)CC3)c3ccccc23)cc1 | 5.13 | 13.8 | 
38 | Cc1ccc(C)c(-c2csc(NC(=O)c3cnccn3)n2)c1 | 5.59 | > 100 | > 40
39 | CCOc1c2c(nc3ccc(Cl)cc13)CCC2 | 5.29 | 21.4 | > 40
40 | Cc1ccccc1OCc1n(CC(=O)OC2CC(C)CCC2C(C)C)c2ccccc2[n+]1C (stereo not drawn) | 5.43 | 5.17 | 24.4
41 | COc1cc(N=c2c([N+](=O)[O-])nn(-c3ccc4c(c3)OCCO4)n2O)cc(OC)c1 |  |  | 16.2
42 | CCOC(=O)c1cc(COc2cc(Cl)cc(Cl)c2)on1 | 5.52 | 21.6 | 
